Values of other authors, collected in US9211237B2, “Film foaming hydroalcoholic foam” (STIEFEL RESEARCH AUSTRALIA PTY LTD, priority 2003, dated 2015).

Details: UV absorber

Row | SMILES | maximum absorption [nm]
1 | COc1ccc(C(=O)CC(=O)c2ccc(C(C)(C)C)cc2)cc1 [Parsol 1789, butyl methoxydibenzolymethane] | ~360
2 | CCCCC(CC)COC(=O)C=Cc1ccc(OC)cc1 (centres unmarked) [Parsol MCX, octinoxate] | 308
